The results in this text go back to patent US5391569A, “New chromene compounds having a triene side chain” (Adir et Compagnie, priority 1992, dated 1995).

Where two headings read alike, the source gives them in different places.

In one assay the test system is endogenous membrane PLA2. As to the kind of experiment: Inhibition of liberation of arachidonic acid from isolated rat polymorphonuclears stimulated by ionophore. It is filed as cell-based. The settings on record: Test on rat PMNs; ionophore stimulation. How it is done:
In a cell model involving endogenous membrane PLA2, the compounds of the invention also exerted an inhibiting effect on the liberation of arachidonic acid by their action on isolated rat polymorphonuclears (PLN), the membrane phospholipids of which had been labelled with tritiated arachidonic acid. The degree of activity of the compounds of the invention is assessed by measuring the radioactivity liberated after stimulation by ionophore […] according to the technique described by Sakson, Raz, Denny, Wyche and Needleman (Prostaglandins, 14, (1977), 853, sqq.).

For assay [1], the target named is porcine pancreatic phospholipase A2 (PLA2) (Sus scrofa, UniProt P00592). As to the kind of experiment: Inhibition of liberation of tritiated oleic acid from Escherichia coli membranes by porcine pancreatic phospholipase A2. Format: biochemical. The settings on record: Test on Escherichia coli membranes. From the text: The compounds of the present invention have an inhibiting activity on the liberation of tritiated oleic acid previously incorporated into Escherichia coli membranes under the effect of porcine pancreatic phospholipase A2 (PLA2) according to the technique described by Frason, Patriarca and Elsbach (J. Lipid. Res., 15, (1974), 380-388).
porcine pancreatic phospholipase A2 (PLA2), sequence (P00592 23-146): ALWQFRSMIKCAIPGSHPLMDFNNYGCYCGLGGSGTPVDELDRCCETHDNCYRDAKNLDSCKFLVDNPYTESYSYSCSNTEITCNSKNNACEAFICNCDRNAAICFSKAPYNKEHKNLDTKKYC

In assay [2] the test system is mouse calvaria. As to the kind of experiment: Anti-bone resorption-1: inhibition of hyper-resorption in mouse calvaria (in vitro). The settings on record: for inhibition at 10 µM / inhibition at 50 µM: hyper-resorption induced by 5×10^-8 M retinoic acid; for inhibition at 7.5 µM: 7,5 μM. It is filed as cell-based.
For assay [3], the system named is mouse calvaria. As to the kind of experiment: Formation of osteoid tissue: incorporation of tritiated proline into bone tissue of mouse calvaria. It is filed as cell-based. Conditions: read-out: Stimulation of formation. From the text:
An effect promoting the formation of osteoid tissue (incorporation of tritiated proline from the medium into the bone tissue of mouse calvaria) has also been observed with some compounds: […]

The test system of assay [4] is mice in which a state of hyper-resorption had been induced by a calcium-deficient diet. As to the kind of experiment: Anti-bone resorption-2: in vivo urinary [3H] tetracycline excretion in mice with hyper-resorption induced by calcium-deficient diet. Conditions: calcium-deficient diet (0.4%). How it is done: In vivo study according to the measurement method described by Konig, Muhlbauer and Fleisch ("Tumor necrosis factor and interleukine-1 stimulate bone resorption in vivo as measured by urinary [^3 H] tetracycline excretion from prelabeled mice", J. Bone Min. Res., 3, (1988), 621-627). A study was carried out on mice in which a state of hyper-resorption had been induced by a calcium-deficient diet (0.4%).

For the compound `Cc1cc(Cl)cc2c1OCC(/C=C/C=C/C=C/C(=O)O)=C2` [Example 15, (2E,4E,6E)-7-(6-Chloro-8-methyl-2H-chromen-3-yl)hepta-2,4,6-trienoic acid], the IC50 (usually the point on the concentration scale where inhibition reaches its midpoint) in the assay on endogenous membrane PLA2 stood at 50 µM; in assay [1] it was 10 µM.
For the compound `CC(/C=C/C=C(\C)C1=Cc2cc(C(C)(C)C)ccc2OC1)=C\C(=O)O` [Example 41, (2E,4E,6E)-7-(6-Tert.-butyl-2H-chromen-3-yl)-3-methylocta-2,4,6-trienoic acid], the IC50 in assay [1] is 4 µM.
As for `CCOC(=O)\C=C(C)/C=C/C=C(\C)C1=Cc2cc(-c3ccccc3)ccc2OC1` [Example 27], the IC50 in assay [1] is 7.5 µM. This compound returned an inhibition at 10 µM with mouse calvaria [2] of 11%.
Regarding `O=C(O)/C=C/C=C/C=C/C1=Cc2cc(Cl)cc(Cl)c2OC1` [Example 20, (2E,4E,6E)-7-(6,8-Dichloro-2H-chromen-3-yl) hepta-2,4,6-trienoic acid], the figures for the IC50 (with endogenous membrane PLA2; in assay [1]) were 30 µM and 8 µM, respectively.
`CCOC(=O)/C=C(C)/C=C/C=C(\C)C1=Cc2cc(C)ccc2OC1` [Example 32, Ethyl (2E,4E,6E)-7-(6-methyl-2H-chromen-3-yl)-3-methylocta-2,4,6-trienoate]: the IC50 in assay [1] came to 7.5 µM. Moreover, in the assay with mouse calvaria [2], the inhibition at 10 µM is 14% and the inhibition at 50 µM was determined as 12%.
As to `CC(C)(C)c1ccc2c(c1)C=C(/C=C/C=C/C=C/C(=O)O)CO2` [Example 6, (2E,4E,6E)-7-(6-Tert.-butyl-2H-chromen-3-yl) hepta-2,4,6-trienoic acid], the IC50 in the assay on endogenous membrane PLA2 amounted to 10 µM; in assay [1] it was 9 µM.
With `CCOC(=O)/C=C(C)/C=C/C=C(\C)C1=Cc2cc(C(C)(C)C)cc(C)c2OC1` [Example 36, Ethyl (2E,4E,6E)-7-(6-tert.-butyl-8-methyl-2H-chromen-3-yl)-3-methylocta-2,4,6-trienoate], in assay [1], the IC50 stood at 5 µM.
Take `Cc1cc(Cl)cc2c1OC(C)(C)C(/C=C/C=C/C=C/C(=O)O)=C2` [Example 19, (2E,4E,6E)-7-(2,2,8-Trimethyl-6-chloro-2H-chromen-3-yl)hepta-2,4,6-trienoic acid]: the IC50 worked out at 50 µM in the assay with endogenous membrane PLA2 and 30 µM in assay [1].
For `Cc1cc(Cl)c2c(c1)C=C(/C=C/C=C/C=C/C(=O)O)CO2` [Example 14, (2E,4E,6E)-7-(6-Methyl-8-chloro-2H-chromen-3-yl)hepta-2,4,6-trienoic acid], in that order: 50 µM and 20 µM.
For `Cc1cc2c(c(C(C)(C)C)c1)OCC(/C=C/C=C/C=C/C(=O)O)=C2` [Example 11, (2E,4E,6E)-7-(6-Methyl-8-tert.-butyl-2H-chromen-3-yl)hepta-2,4,6-trienoic acid], in that order: 5 µM and 6 µM.
For `CC(C)c1ccc2c(c1)C=C(/C=C/C=C/C=C/C(=O)O)CO2` [Example 5, (2E,4E,6E)-7-(6-Isopropyl-2H-chromen-3-yl) hepta-2,4,6-trienoic acid], in that order: 30 µM and 7.5 µM.
As for `CC(/C=C/C=C(\C)C1=Cc2cc(-c3ccccc3)ccc2OC1)=C\C(=O)O` [Example 26, (2E,4E,6E)-3-Methyl-7-(6-phenyl-2H-chromen-3-yl)octa-2,4,6-trienoic acid], the IC50 in assay [1] was 5 µM. The activation at 10 µM in the assay with mouse calvaria [3] was determined as 7%. In the assay with mouse calvaria [2], the inhibition at 10 µM came to 11% and the inhibition at 50 µM was found to be 29%.
In the case of `CC(C)(C)c1cc2c(c(C(C)(C)C)c1)OCC(/C=C/C=C/C=C/C(=O)O)=C2` [Example 13, (2E,4E,6E)-7-(6,8-Ditert.-butyl-2H-chromen-3-yl)hepta-2,4,6-trienoic acid], the results for the IC50 (in the assay with endogenous membrane PLA2; in assay [1]) were 5 µM and 3 µM, respectively.
In the case of `CCOC(=O)/C=C(C)/C=C/C=C(\C)C1=Cc2cc(C(C)(C)C)ccc2OC1` [Example 33, Ethyl (2E,4E,6E)-7-(6-tert.-butyl-2H-chromen-3-yl)-3-methylocta-2,4,6-trienoate], the inhibition at 10 µM with mouse calvaria [2] was found to be 3%.
Turning to `CCOC(=O)/C=C(C)/C=C/C=C(\C)C1=Cc2cc(-c3ccccc3)ccc2OC1` [Example 25, Ethyl (2E,4E,6E)-3-methyl-7-(6-phenyl-2-H-chromen-3-yl)octa-2,4,6-trienoate], the IC50 in assay [1] was 5 µM. This compound also displayed an inhibition at 50 µM in the assay with mouse calvaria [2] of 15%.
For `Cc1cc(C)c2c(c1)C=C(/C=C/C=C/C=C\C(=O)O)CO2` [Example 2, (2Z,4E,6E)-7-(6,8-Dimethyl-2H-chromen-3-yl) hepta-2,4,6-trienoicacid], the “% variation in urinary [3H] tetracycline excretion” value in assay [4] (oral dose 50 mg/kg) is listed as -10%; in assay [4] (oral dose 100 mg/kg), -10%; in assay [4] (oral dose 200 mg/kg), -12%.
Take `CCOC(=O)/C=C(C)/C=C/C=C(\C)C1=Cc2cc(C)cc(C)c2OC1` [Example 35, Ethyl (2E,4E,6E)-7-(6,8-dimethyl-2H-chromen-3-yl)-3-methylocta-2,4,6-trienoate]: the IC50 in assay [1] was 5 µM. Also, the activation at 10 µM with mouse calvaria [3] was 11%. In addition, in the assay on mouse calvaria [2], the inhibition at 10 µM was 15% and the inhibition at 50 µM is 32%. For the same compound, in the assay with mouse calvaria [2] (parathormone (PTH) 500 ng/ml, read-out: Hyper-resorption with PTH), the inhibition at 7.5 µM worked out at 12%. The inhibition at 7.5 µM with mouse calvaria [2] (retinoic acid, read-out: Hyper-resorption with retinoic acid) was determined as 9%.
Take `Cc1cc(C)c2c(c1)C=C(/C=C/C=C/C=C/C(=O)O)C(C)(C)O2` [Example 18, (2E,4E,6E)-7-(2,2,6,8-Tetramethyl-2H-chromen-3-yl)hepta-2,4,6-trienoic acid]: the IC50 (in the assay on endogenous membrane PLA2; in assay [1]) was 30 µM in each case.
Take `CCOC(=O)/C=C(C)/C=C/C=C(C)/C=C/c1c(C)cc(OC)c(C)c1C` [Etretinate, reference compound]: the “Effect on hyper-resorption / urinary excretion of tritiated tetracycline (in words)” value in assay [4] is given as “tends to increase the urinary excretion of tritiated tetracycline”. Besides, the entries for the “% variation in urinary [3H] tetracycline excretion” value in assay [4] (oral dose 50 mg/kg) and in assay [4] (oral dose 100 mg/kg) were “+11%” and “+3%”, respectively. The same compound returned an inhibition at 50 µM in the assay with mouse calvaria [2] of 11%.
